Measured values taken from US20040019066A1, “Methionine salvage pathway in bacillus” (priority 2002, published 2004).

What was measured:
[1] = test system: B. subtilis; assay: Growth in the presence of trifluoromethylthioribose (3F-MTR), resistance phenotype; format: cell-based, Bacillus subtilis; conditions: inactivation of mtnK, mtnS, mtnY and mtnW
Excerpt: Mutants were obtained by transformation of a wild type strain with a random transposon library, selecting for growth in the presence of trifluoromethylthioribose (3F-MTR). The mutants were subsequently tested for growth on plates lacking sulfur source but supplemented with MTR: only those that could not grow were retained for further study. In order to ascertain that the resistant phenotype was not coming from secondary mutations but was directly related to the transposon insert, the chromosome DNA was extracted from each putative mutant and back transformed into a wild type strain selecting for the transposon antibiotic marker. The 3F-MTR and MTR phenotypes were subsequently tested and only those mutants that passed the test were retained. The insertion positions of the transposons were then sequenced. […]
(§1) Bacterial strains and plasmids, and growth media: E. coli and B. subtilis strains as well as plasmids used in this work are listed in Table 3. […] In the latter case, 10 [μl of the sulfur source under investigation was applicated onto paper discs (MTR, 200 mM stock solution and methionine, 100 mM stock solution) deposited at the center of the plate, after bacteria had been uniformly spread at the surface of the plate, and growth was measured around the disK. […] The optical density (OD) of bacterial cultures was measured at 600 nm. […]

[2] = test system: B. subtilis; conditions: if the methyl sulfur moiety of the molecule is recycled; reference [13]; cited from earlier work
[3] = test system: Strain BSHP7014 (mtnW:lacZ amyE::pxyl mtnXYZ); assay: Toxicity of MTR for BSHP7014 strain (paper disc on ED1 minimal medium plates); format: cell-based, Bacillus subtilis; conditions: inferred from MTR toxicity in mtnU or mtnW mutants with functional mtnY
Experimental: Toxicity of MTR for BSHP7014 strain. Strain BSHP7014 (mtnW:lacZ amyE::pxyl mtnXYZ) was grown on ED1 minimal medium plates in the presence of sulfate as sulfur source (panel A) or in the absence of any added sulfur source (agar as sole sulfur source, panel B). Xylose was added to the medium in order to trigger the expression of mtnXYZ from the pxyl promoter, 10 μl of methionine (met) or MTR was adsorbed on paper discs and plates were incubated over-night at 37° C. Methionine was used as a control for growth and/or toxicity of the sulfur source.
Two genes in the pathway are dispensable, mtnV and mtnX. The first one encodes a transaminase of which there are nine putative paralogs in the genome of B. subtilis (YwfG, AlaT, AspB, PatA, YhdR, YdfD, PatB, YisV, and HisC). In the same way, MtnX (YkrX) is a member of the phosphatase family pfam00702 ([12], FIG. 6), and therefore of a ubiquitous class of hydrolases (several phosphatase genes, in particular are present in the genome of B. subtilis). This is likely to account for the lack of phenotype under our growth conditions. […] In contrast, we discovered that MTR is toxic when the distal genes are present (when used as sole sulfur source or in the presence of sulfate, see FIG. 7). Because of the weak phenotype of a mtnZ mutant and the absence of phenotype of a mtnX mutant, we can be confident that MtnY acts before MtnW (this is a common feature in operons, where it is generally observed that the more distal genes code for proteins acting in the more proximate steps of the pathway).
as §1, with “3. E. coli TG1 and XL1-Blue were used for cloning experiments (TG1 for single cross-over recombination and XL1-Blue for double cross-over recombination). Despite the fact that there are no public regulations yet in this domain in China, all experiments were performed in accordance with the European regulation requirements concerning the contained use of Genetically Modified Organisms of Group-I (French agreement N^o 2735).” for “3.”

Row | SMILES | Phenotype towards 3F-MTR [1] | Toxicity of the MTR analog [2] | Toxicity to the cells [3]
1 | O=C[C@H](O)[C@H](O)[C@H](O)CSC(F)(F)F [3F-MTR, 5-thio-5-5-S-trifluoromethyl-D-ribose] | resistance | toxic | 
2 | CSCC(O)C(O)C(=O)COP(=O)(O)O (stereo not drawn) [5-thiomethylribulose-1-phosphate] |  |  | toxic
